Results taken from patent US20240182475A1 (Université de Lausanne, priority 2021, published 2024).
“Also recorded” adds a separate entry of the source.

Tests used:
MOVAS cells = test: Cytotoxicity assay, LDH release; format: cell-based, mouse; settings: at 2 uM
Procedure, shortened: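 MOVAS cells were exposed to CPP for 24 h in DMEM+10% FBS with a range of compound concentrations. Cytotoxicity was measured as LDH release by a homogeneous membrane-integrity assay, expressed as background-subtracted percentage of the Triton X-100-lysed signal.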

[1] = system: WT murine primary chondrocytes; test: Murine primary chondrocyte calcification (Alizarin red); format: cell-based, mouse; settings: sCPP 24 h, DMEM+10% FBS, 50 uM
Description: (a) WT and Cse-deficient chondrocytes were incubated with a CSE activator (SU004, 50 μM) previously identified by high-through put screen, or with the equivalent volume of DMSO (0.1%) for 24 hours in calcification medium. STS 25 mM was used as a positive control for calcification inhibition. Calcium-containing crystals were stained with Alizarin red and quantified. (b) Cytotoxicity was assessed by LDH measurement and expressed as % over 100% cytotoxicity. (c) IL-6 secretion was measured by ELISA in supernatant of WT chondrocytes incubated with SU004 50 μM or STS 25 mM for 24 hours in calcification medium. (d) Primary human chondrocytes from 3 OA patients (P1, P2, P3) were incubated with SU004 50 μM, or with the equivalent volume of DMSO (0.1%) for 24 hours in calcification medium. Calcium-containing crystals were stained with Alizarin red and quantified. (e) Cytotoxicity was assessed by LDH measurement and expressed as % over 100% cytotoxicity. (f) IL-6 secretion was measured by ELISA in supernatant of human chondrocytes incubated for 24 hours with SU004 50 μM in calcification medium. *p<0.05, ** p<0.01, ****p<0.0001.
Primary murine chondrocytes were stimulated with secondary calciprotein particles (sCPP) for 24 h in DMEM+10% FBS in presence of C5 or C6 at 50 uM or vehicle (DMSO). Mineralization was analyzed by Alizarin red staining of the cells (A) and quantified (B). Statistical analysis was determined using one-way ANOVA with **p<0.01 and ***p<0.001.
Chondrocytes were isolated from 6 days old mice (Cse KO, Cse tg, Cbs KO and corresponding WT mice) as described previously (Nasi, So, et al. 2016). Tenocytes were isolated from 6 to 8 weeks old mice (Cse KO and WT) and by double digestion in Collagenase IV NB standard grade (Witec AG). […]
After incubation in calcification media, supernatant was collected for ELISA and LDH measurement, and cell monolayer was washed in PBS, fixed in 10% formol and crystal deposition analyzed through Alizarin red staining and quantified as previously described

ATDCS chondrocytes = test: ATDCS chondrocyte mineralization (Alizarin red); format: cell-based; settings: sCPP 24 h, different concentrations
Description: Alizarin red staining of ATDCS chondrocytes stimulated with sCPP for 24 h in DMEM+10% FBS in presence of different concentrations of compounds C5 and C6. The graphs show Alizarin red absorbance at 570-630 nm. Statistical analysis (in comparison to 0) was determined using one-way ANOVA with *p<0.05, **p<0.01, ***p<0.001, […].

WT primary VSMC = test: Primary vascular smooth muscle cell mineralization, wild type; format: cell-based, mouse; settings: secondary CPP 24 h, 50 uM, listed as Z20
Description: (§1) Primary VSMC were isolated from wild-type (WT) or CSE-deficient (CSE ko) mice. A) Alizarin red staining of WT or CSE ko VSMC stimulated with secondary CPP for 24 h in DMEM+10% FBS and treated or not with 50 uM of compound Z20. […] Statistical analysis was determined using one-way ANOVA (compared to WT vehicle) with ***p<0.001, ****p<0.0001.

CSE ko primary VSMC = test: Primary vascular smooth muscle cell mineralization, CSE ko; format: cell-based, mouse; settings: secondary CPP 24 h, 50 uM
Description: as §1

primary murine tenocytes = test: Primary murine tenocyte mineralization (Alizarin red); format: cell-based, mouse; settings: secondary CPP 24 h, 50 uM; listed as Z20
Description: A) Alizarin red absorbance at 570-630 nm of primary murine tenocytes stimulated with secondary CPP for 24 h in DMEM+10% FBS and treated or not with 50 uM of Z20. B) Percentage of cytotoxicity (LDH %) in tenocytes treated or not with Z20 for 24 h. Statistical analysis was determined using one-way ANOVA with ***p<0.001.
Chondrocytes were isolated from 6 days old mice (Cse KO, Cse tg, Cbs KO and corresponding WT mice) as described previously (Nasi, So, et al. 2016). Tenocytes were isolated from 6 to 8 weeks old mice (Cse KO and WT) and by double digestion in Collagenase IV NB standard grade (Witec AG). Chondrocytes were amplified in DMEM with 10% FBS and 1% Penicillin Streptomycin and used at P1. Tenocytes were amplified in αDMEM with 10% FBS, 0.2 mM L-ascorbic acid, 2-phosphate and 1% Penicillin Streptomycin and used at P1. For crystal formation analysis, cells were cultured for 14 days in calcification medium (BGJb (Gibco) medium with 10% FBS, 0.2 mM L-ascorbic acid, 2-phosphate, 20 mM β-glycerol phosphate and 1% Penicillin Streptomycin). Medium and stimulations were refreshed every 3 days of culture. Alternatively, in some experiments, cells were cultured for 24 h in medium supplemented with secondary calciprotein particles (CPP, final concentration equivalent to […] calcium) to induce calcification as previously described (Aghagolzadeh et al. 2017). […]

HaCaT cells = test: Human keratinocyte line mineralization (Alizarin red); format: cell-based; settings: secondary CPP 24 h, different concentrations; listed as Z20
Description: Immortalized human keratinocytes HaCaT cells were stimulated with secondary CPP and different concentrations of the compound Z20 for 24 h. Cells were then stained with Alizarin Red. […] Statistical analysis was determined using one-way ANOVA with *p<0.05, ***p<0.001.

| SMILES | Cytotoxicity assay LDH release (% of cytotoxicity) (MOVAS cells) | Mineralization (Alizarin red) [1] | Mineralization (Alizarin red absorbance 570-630 nm) (ATDCS chondrocytes) | Mineralization (Alizarin red, % over WT vehicle) (WT primary VSMC) | Mineralization (Alizarin red, % over WT vehicle) (CSE ko primary VSMC) | Mineralization (Alizarin red absorbance 570-630 nm) (primary murine tenocytes) | Mineralization (Alizarin red absorbance 570-630 nm) (HaCaT cells) |
| --- | --- | --- | --- | --- | --- | --- | --- |
| Cn1ncc2c(Nc3cnn(CC4CCCO4)c3)ncnc21 (stereo not shown) [Compound 8, N-{1-methyl-1H-pyrazolo[3,4-d]pyrimidin-4-yl}-1-[(oxolan-2-yl)methyl]-1H-pyrazol-4-amine] | 15% at | inhibit primary murine chondrocyte mineralization | inhibit ATDCS mineralization in vitro in a dose dependent fashion | – | – | – | – |
| CCn1cnc2c(Nc3cnn(CC4CCCO4)c3)ncnc21 (stereo not shown) [Compound 13] | – | – | – | significant inhibition; also recorded: inhibits primary vascular smooth muscle cell mineralization | no inhibition | inhibited calcification; also recorded: inhibits primary murine tenocyte mineralization | inhibited calcification; also recorded: inhibits human keratinocyte line mineralization |
